Source: PubChem BioAssay (NCI)
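Results reflect a 48-hour exposure of cells in 96-well plates to compound at five concentrations. GI50 is the concentration that inhibits growth by half. The concentration for full growth arrest is given as TGI.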

How the values were obtained:
Assay in all cases: NCI tumour cell line growth inhibition, 48 h; in the data active = GI50 below about 0.43 µM; inactive = the rest
[1] = tested on: IGROV1 ovarian
[2] = tested on: MDA-MB-231 breast
[3] = tested on: LOX IMVI melanoma
[4] = tested on: 786-0 renal
[5] = tested on: HT29 colon
[6] = tested on: HS 578T breast
[7] = tested on: MCF7 breast
[8] = tested on: T-47D breast
[9] = tested on: A549 NSCLC
[10] = tested on: SK-MEL-5 melanoma
[11] = tested on: SNB-75 CNS
[12] = tested on: OVCAR-4 ovarian
[13] = tested on: NCI-H522 lung
[14] = tested on: MALME-3M melanoma
[15] = tested on: SK-OV-3 ovarian
[16] = tested on: BT-549 breast
[17] = tested on: HOP-62 NSCLC
[18] = tested on: TK-10 renal
[19] = tested on: UACC-257 melanoma
[20] = tested on: SF-539 CNS
[21] = tested on: UO-31 renal
[22] = tested on: HL-60(TB) leukemia
[23] = tested on: SNB-19 CNS
[24] = tested on: HCC-2998 colon
[25] = tested on: MDA-MB-435
[26] = tested on: CCRF-CEM leukemia
[27] = tested on: COLO 205 colon
[28] = tested on: DU-145 prostate
[29] = tested on: OVCAR-8 ovarian
[30] = tested on: HCT-15 colon
[31] = tested on: KM12 colon
[32] = tested on: OVCAR-3 ovarian
[33] = tested on: OVCAR-5 ovarian
[34] = tested on: SR leukemia
[35] = tested on: SW-620 colon
[36] = tested on: NCI/ADR-RES ovarian
[37] = tested on: SF-268 CNS
[38] = tested on: UACC-62 melanoma
[39] = tested on: HCT-116 colon
[40] = tested on: K-562 leukemia
[41] = tested on: PC-3 prostate
[42] = tested on: ACHN renal
[43] = tested on: SK-MEL-28 melanoma
[44] = tested on: NCI-H226 lung
[45] = tested on: SN12C renal
[46] = tested on: MOLT-4 leukemia
[47] = tested on: NCI-H460 lung
[48] = tested on: SF-295 CNS
[49] = tested on: NCI-H23 lung
[50] = tested on: U251 CNS
[51] = tested on: RPMI-8226 leukemia
[52] = tested on: A498 renal
[53] = tested on: MDA-MB-468 breast
[54] = tested on: SK-MEL-2 melanoma
[55] = tested on: CAKI-1 renal
[56] = tested on: HOP-92 NSCLC
[57] = tested on: M14 melanoma
[58] = tested on: EKVX NSCLC
[59] = tested on: RXF 393 renal

CN1C(=O)N(C)C2SC(N/N=C/c3cccs3)=NC21 (stereo not drawn)
30.8 µM: TGI [32]
88.3 µM: TGI [2]
> 100 µM: TGI [1] | TGI [3] | TGI [4] | TGI [7] | TGI [8] | TGI [9] | TGI [10] | TGI [12] | TGI [14] | TGI [16] | TGI [17] | TGI [18] | TGI [19] | TGI [21] | TGI [23] | TGI [26] | TGI [28] | TGI [29] | TGI [30] | TGI [31] | TGI [34] | TGI [35] | TGI [37] | TGI [38] | TGI [39] | TGI [40] | TGI [41] | TGI [42] | TGI [43] | TGI [44] | TGI [45] | TGI [46] | TGI [47] | TGI [48] | TGI [49] | TGI [50] | TGI [51] | TGI [52] | TGI [55] | TGI [56] | TGI [57] | TGI [58]
9.74 µM: TGI [6]
10.4 µM: TGI [13]
11.5 µM: TGI [5]
5.47 µM: TGI [53]
71.9 µM: TGI [24]
4.18 µM: TGI [25]
86.2 µM: TGI [33]
7.27 µM: TGI [54]
24.1 µM: TGI [27]
inactive: GI50 [1] 5.58 µM | GI50 [2] 4.89 µM | GI50 [3] 5.26 µM | GI50 [4] 14.3 µM | GI50 [5] 3.03 µM | GI50 [6] 2.63 µM | GI50 [7] 3.98 µM | GI50 [8] 4.56 µM | GI50 [9] 9.64 µM | GI50 [10] 2.87 µM | GI50 [11] 1.66 µM | GI50 [12] > 100 µM | GI50 [13] 2.74 µM | GI50 [14] 3.83 µM | GI50 [15] 7.74 µM | GI50 [16] 3.61 µM | GI50 [17] 7.45 µM | GI50 [18] > 100 µM | GI50 [19] > 100 µM | GI50 [20] 3.42 µM | GI50 [21] 9.9 µM | GI50 [22] 2.39 µM | GI50 [23] 11.4 µM | GI50 [24] 8.21 µM | GI50 [25] 1.58 µM | GI50 [26] 3.96 µM | GI50 [27] 4.47 µM | GI50 [28] 30 µM | GI50 [29] 14.5 µM | GI50 [30] 3.92 µM | GI50 [31] 4.97 µM | GI50 [32] 3.43 µM | GI50 [33] 6.45 µM | GI50 [34] 2.47 µM | GI50 [35] 3.68 µM | GI50 [36] 3.91 µM | GI50 [37] 14.3 µM | GI50 [38] 3.69 µM | GI50 [39] 3.98 µM | GI50 [40] 2.96 µM | GI50 [41] 6.77 µM | GI50 [42] 12 µM | GI50 [43] 6.38 µM | GI50 [44] 7.53 µM | GI50 [45] > 100 µM | GI50 [46] 4.26 µM | GI50 [47] 3.98 µM | GI50 [48] 3.92 µM | GI50 [49] 17.7 µM | GI50 [50] 4.46 µM | GI50 [51] 9.1 µM | GI50 [52] 22.7 µM | GI50 [53] 1.89 µM | GI50 [54] 2.5 µM | GI50 [55] 4.12 µM | GI50 [56] > 100 µM | GI50 [57] 3.32 µM | GI50 [58] 7.93 µM | GI50 [59] 2.09 µM
7.36 µM: TGI [22]
16.9 µM: TGI [20]
38.2 µM: TGI [36]
7.61 µM: TGI [11]
92 µM: TGI [15]
17.6 µM: TGI [59]
